Results reported in patent US20240299591A1, “Antimicrobial Peptides and Their Use” (priority 2021, published 2024).
Values after ≈ are worked out from the molar mass of the structure shown. Where a SMILES comes first, the peptide text is derived from it.

Key:
Aspergillus fumigatus = type: cell-based
Description: The assays were performed using Nunc 262162 U96 polystyrene round bottomed clear plates (www.nuncbrand.com).
(§1) When testing the peptides against A. fumigatus, peptides at different concentrations were mixed with A. fumigatus conidia to reach a final volume of 100 μL per well. The final conidial concentration was 5×10^5 cells/mL in 10% Vogel's medium. After 24 h of incubation at 37° C. in 96 well plates, fungal growth with the different peptide concentrations was determined by measurement of the optical density at 610 nm in a TriStar LB 941 Multimode Microplate Reader. The IC50 values were determined using four parameter logistic regression formula provided by Sigma Plot 10.0. Values are represented as means±SEM from two independent experiments (n=3).
(§2) The IC50 of the fluorescently labelled peptides cannot be accurately determined using the optical density method described in the last section. This is because the fluorophore structures absorbed light at 610 nm which was the wavelength used for the optical density measurements. In order to overcome this, the BacTiter-Glo™ Microbial Cell Viability Assay kit purchased from Promega was used. The BacTiter-Glo™ Reagent relies on the properties of a proprietary thermostable luciferase (Ultra-Glo™ Recombinant Luciferase) and a proprietary formulation for extracting ATP from fungal cells which will generates a ‘glow-type’ luminescent signal. This is produced by the luciferase reaction shown in Scheme 1, which has a signal half-life of over 30 min depending on the experimental conditions. The luminescent signal is proportional to the amount of ATP present, which is directly proportional to the number of living cells in culture.
(§3) The IC50 assays for all fluorescently labelled peptides were performed using Greiner CELLSTAR white polystyrene wells flat bottomed 96 well plates. The incubation conditions remained the same for the optical density measurement described in the previous section. Once the incubation procedure was finished, the plate was equilibrated to room temperature. A mixture of BacTiter-Glo™ buffer and substrate was then added to the plate (100 μL per well). The plate was shaken for 5 min and read using the Tristar […] luminometer. Data analysis was performed using Sigma Plot 10.0. All values shown are presented as means±SEM from two independent experiments (n=3).

F. oxysporum = assay: Minimum inhibitory concentration, F. oxysporum; type: cell-based, Fusarium oxysporum; settings: 5 × 10^5, 10% Vogel's
Description: F. oxysporum was grown in liquid potato dextrose broth (PDB) at 28° C. with shaking (170 rpm) for 5 days. The suspension was filtered through folded Miracloth (4 layers) and centrifuged for 10 min at RT. The supernatant was discard and the pellet was resuspend in 1.5 mL of sterile dH2O and quantified.

Fusarium oxysporum = type: cell-based; settings: 24 h
Description: Dose dependent inhibition of fungal growth by all non-labelled peptides (indicated by IC50 values) was determined via this methodology. The assays were performed using Nunc 262162 U96 polystyrene round bottomed clear plates (www.nuncbrand.com).
as §1
When testing the peptides against N. crassa and F. oxysporum, experiments were carried as described above apart from the incubation temperature was changed to 25° C. for N. crassa and 35° C. for F. oxysporum.
as §2, §3

S. aureus = type: cell-based, Staphylococcus aureus
Description: Bacteria strains used were grown on Lysogeny Broth (LB) agar at 37° C. for 1 day, and were harvest using sterile inoculation loop by taking a single colony and resuspending in PBST. The concentration of cells was quantified using a haemocytometer. For the determination of the minimum inhibitory concentration, cell density was adjusted to 10^8 cells/mL with 20% liquid LB medium.

N=C(N)NCCC[C@@H]1NC(=O)CNC(=O)[C@H](Cc2c[nH]c3ccccc23)NC(=O)[C@H](Cc2ccccc2)NC(=O)[C@H](Cc2c[nH]c3ccccc23)NC(=O)[C@@H](Cc2ccccc2)NC(=O)[C@H](CCCCN)NC(=O)[C@H](CCCCN)NC1=O [MFIGAF001, Cyclo(Arg-Lys-Lys-phe-Trp-Phe-Trp-Gly)] (HELM PEPTIDE1{F.W.G.R.K.K.[dF].W}$PEPTIDE1,PEPTIDE1,1:R1-8:R2$$$V2.0)
IC50 Aspergillus fumigatus (Aspergillus fumigatus; 24 h): 1.4 mg/L (≈ 1.23 µM)
IC99 Aspergillus fumigatus (Aspergillus fumigatus; Conidia (10% Vogel's), 37° C., 24 h): 5.7 mg/L
IC50 value against major pathogenic fungi (in words) (Aspergillus fumigatus; various fungi, including Aspergillus fumigatus and Fusarium oxysporum): sub-micromolar
MIC (F. oxysporum): 6.25 µM (≈ 7.1 µg/mL)
IC50 Fusarium oxysporum (Fusarium oxysporum): 1.9 mg/L (≈ 1.67 µM)
Antibacterial activity against Staphylococcus aureus (S. aureus): Antibacterial activity
MIC (S. aureus): 15.6 µM (≈ 17.7 µg/mL)
